Experimental data from patent publication US11229628B2, “TRPA1 and TRPV4 inhibitors and methods of using the same for organ-specific inflammation and itch” (Duke University, priority 2015, dated 2022).
Entries after “also recorded” stand apart in the source; their conditions may differ.

Legend:
[1] = Stability on incubation in serum; assay type: in vitro ADME; conditions: 3 h and 12 h incubation in serum at 37° C.
Protocol: It was also tested whether compounds are readily broken down in systemic fluid, for which serum was used.

TRPV4 [2] = molecular target: T1, TRPV4 (Mus musculus, UniProt Q9EPK8); assay: GSK101-evoked Ca++ transient in 1° MK (fura-2); assay type: cell-based; conditions: 5 nM GSK101; 20 μM GSK205
T1 construct: Primary mouse keratinocytes were derived from back skin of newborn mice; endogenous in cells; host or cells: primary mouse epidermal keratinocytes (1° MK), wild type
T1 sequence (Q9EPK8 whole entry): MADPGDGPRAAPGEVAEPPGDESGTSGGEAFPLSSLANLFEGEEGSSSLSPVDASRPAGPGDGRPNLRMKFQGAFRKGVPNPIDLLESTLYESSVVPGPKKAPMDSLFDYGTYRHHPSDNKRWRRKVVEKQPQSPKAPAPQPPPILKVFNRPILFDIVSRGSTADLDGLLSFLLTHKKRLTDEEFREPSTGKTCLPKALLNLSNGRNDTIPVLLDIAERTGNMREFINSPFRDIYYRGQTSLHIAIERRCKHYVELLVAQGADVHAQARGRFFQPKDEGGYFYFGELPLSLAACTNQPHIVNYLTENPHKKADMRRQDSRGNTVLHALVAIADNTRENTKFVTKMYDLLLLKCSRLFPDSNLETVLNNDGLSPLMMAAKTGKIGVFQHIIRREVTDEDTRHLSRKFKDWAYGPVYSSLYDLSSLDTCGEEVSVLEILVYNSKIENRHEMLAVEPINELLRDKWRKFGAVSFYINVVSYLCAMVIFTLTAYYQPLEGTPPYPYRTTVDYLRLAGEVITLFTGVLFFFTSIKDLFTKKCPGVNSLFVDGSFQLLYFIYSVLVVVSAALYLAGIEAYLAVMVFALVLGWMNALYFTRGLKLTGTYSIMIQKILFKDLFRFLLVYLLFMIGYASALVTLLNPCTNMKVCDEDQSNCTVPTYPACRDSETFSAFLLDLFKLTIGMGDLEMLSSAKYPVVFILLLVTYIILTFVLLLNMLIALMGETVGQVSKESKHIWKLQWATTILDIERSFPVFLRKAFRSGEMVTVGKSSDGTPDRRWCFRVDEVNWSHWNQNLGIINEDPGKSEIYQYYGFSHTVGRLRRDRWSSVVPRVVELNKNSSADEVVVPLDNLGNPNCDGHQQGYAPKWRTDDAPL
Protocol: Ca++ imaging of mouse 1° MK in response to chemical activation of TRPV4 was conducted after loading with 2 μM fura2-AM, following a ratiometric Ca2+ imaging protocol with 340/380 nm […] for dual excitation. Ratios of emissions were acquired at 0.5 Hz. ΔR/R0 was determined as the fraction of the increase of a given ratio over baseline ratio, divided by baseline ratio. For stimulation of cells with UVB, where fura-2 was not suitable because of the proximity of stimulation with 340/380 nm and 295 nm, 2 μM fluo4-AM was used instead. Ca++ imaging was carried out at 488 nm excitation, acquisition of emissions at 0.5 Hz, expressed as ΔF/F0. In the custom-built UV optical system, UV LEDs were capped with a ball lens, a transparent optical window in the shape of a hemispherical lens (FIG. 2B). The LED output optical beam focused at 15-20 mm from the lens, with a spot diameter of approximately 1.5˜2.0 mm (FIG. 2C). […] The thermal equilibration stage was set for physiological temperature. We confirmed the non-thermal nature of UVB stimulation using the customized 295 nm LED device in a dedicated experiment (FIG. 2D), thus confirming the specific modality of stimulation as UVB.
We obtained corroborating findings by chemically activating TRPV4 with GSK101, which can directly stimulate TRPV4 in WT 1° MK. […]

mice = assay: UVB-evoked nocifensive behavior after topical GSK205 (Hargreaves' test, von Frey hair); assay type: in vivo, mouse
Protocol: A viscous solution of 68% EtOH/5% glycerol plus 1 mM or 5 mM GSK205 (none for control) was applied to hindpaws by rubbing in 20 μL, applied at time-points 1 hour and again 10 min before UV exposure.
Behavioral tests were performed to evaluate the decrease in withdrawal thresholds in response to mechanical or thermal stimuli applied to hind paws. These withdrawal thresholds were ascertained before and after UVB exposure. Mice were confined by plexi-glass enclosures on top of 25×26 cm Bio Rad Gel Doc 2000 UV transilluminator (302 nm), and otherwise allowed to openly explore this environment. UV-exposure lasted for 5 minutes with an exposure of 600 mJ/cm^2.
Hindpaw mechanical withdrawal thresholds were determined by the automated von Frey hair method, using a 0.5 mm diameter stainless steel filament, part of an automated plantar touch stimulator (Ugo Basile, Modena, Italy). Relevant detail included pre-test acclimatization in a quiet room for 30 min, conducting the test at the same time of day and blinded observers. The stimulus was delivered to the hindpaw, automatically discontinued upon withdrawal, and its intensity recorded automatically. 6-8 trials per animal were conducted, with equal exposure of both hindpaws, leading to an average withdrawal threshold. Results are reported as Δ-threshold, which was calculated by subtracting post-treatment from pre-treatment measurements, expressed as % or relative to 1.0.
Hindpaw thermal (hot) withdrawal thresholds were determined by the well-established Hargreaves' method, using an infra-red thermal stimulation device that delivers the stimulus from underneath the hindpaw combined with automatic shut-off upon withdrawal (Ugo Basile). Stimulation and measurements were conducted as described for von Frey hair testing. A cutoff of 20 sec was set to prevent tissue damage.
In view of the observed impact of epidermal-specific TRPV4-deficiency on mouse nociception in response to UVB, and because of the unambiguous effects of selective TRPV4 blockers on 1° MK in vitro, we tested the possible clinical relevance of our findings. For this purpose, we topically applied TRPV4 inhibitor GSK205 to WT mouse skin and subsequently exposed animals to UVB (FIG. 12A).

TRPV4 [3] = molecular target: TRPV4 (Homo sapiens, UniProt Q9HBA0); assay: UVB-evoked Ca++ transient in TRPV4-transfected HEK293T cells; assay type: cell-based; design: expressed in transfected cells; host or cells: HEK293T cells; conditions: pre-exposure to 20 μM GSK205
Sequence of TRPV4 (Homo sapiens, UniProt Q9HBA0) (Q9HBA0 whole entry, species assumed): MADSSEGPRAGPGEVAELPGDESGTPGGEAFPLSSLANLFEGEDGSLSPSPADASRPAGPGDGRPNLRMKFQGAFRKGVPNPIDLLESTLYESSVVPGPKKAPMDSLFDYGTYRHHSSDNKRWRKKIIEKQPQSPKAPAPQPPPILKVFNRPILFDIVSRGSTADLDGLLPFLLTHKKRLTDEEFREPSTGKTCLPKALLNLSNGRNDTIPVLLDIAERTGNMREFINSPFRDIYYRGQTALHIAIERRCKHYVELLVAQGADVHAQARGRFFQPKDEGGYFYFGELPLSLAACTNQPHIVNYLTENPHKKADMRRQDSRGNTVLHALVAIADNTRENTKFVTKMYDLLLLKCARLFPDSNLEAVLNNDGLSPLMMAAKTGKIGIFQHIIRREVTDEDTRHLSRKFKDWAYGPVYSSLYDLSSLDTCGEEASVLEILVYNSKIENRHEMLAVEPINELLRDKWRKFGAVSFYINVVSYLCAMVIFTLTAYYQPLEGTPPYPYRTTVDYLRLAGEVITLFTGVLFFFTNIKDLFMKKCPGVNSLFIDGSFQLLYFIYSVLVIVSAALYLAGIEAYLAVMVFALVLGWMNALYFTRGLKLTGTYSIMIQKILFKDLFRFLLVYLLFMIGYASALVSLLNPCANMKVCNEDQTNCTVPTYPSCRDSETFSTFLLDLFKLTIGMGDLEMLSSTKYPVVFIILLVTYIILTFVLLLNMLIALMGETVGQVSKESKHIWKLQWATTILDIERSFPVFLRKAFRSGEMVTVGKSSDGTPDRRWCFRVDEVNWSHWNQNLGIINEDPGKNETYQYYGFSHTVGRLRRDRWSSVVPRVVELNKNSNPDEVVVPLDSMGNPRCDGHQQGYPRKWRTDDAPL
From the text: (B) Focusing properties of the ball lens. […] (E) TRPV3 activation experiment. […] (F) TRPV4 selective activator GSK101-related findings.
To assess whether TRPV4 is sufficient for the UVB-evoked Ca++ influx, we introduced high levels of TRPV4 into HEK293 epithelial cells. TRPV4 expression endowed these cells with the ability to generate robust Ca++ signaling in response to UVB (FIG. 2G). Moreover, if they were pre-exposed to GSK205, the response was blocked. Thus, heterologous TRPV4 expression is sufficient for UVB radiation to cause a cellular Ca++ transient.

Row | SMILES | concentration of a fixed spiked amount after incubation in serum [1] | GSK101-evoked Ca++ transient (TRPV4 [2]) | delay in thermal sensitivity after UVB (mice; topical 1 mM GSK205, Hargreaves' test) [h] | sensitivity to von Frey hair mechanical stimulation after UVB (mice; topical 5 mM GSK205) | thermally-evoked nocifensive behavior (thermal allodynia) after UVB (mice; topical 5 mM GSK205, Hargreaves' test, 48 hours post-UVB) | nocifensive behavior after UVB in Trpv4−/− mice (off-target effects) (mice; topical 5 mM GSK205 vs. vehicle, Trpv4−/− mice) | UVB-evoked Ca++ signal in TRPV4-transfected HEK293T cells (TRPV4 [3])
1 | CN(CCc1ccc(Nc2nc(-c3ccccc3)cs2)cc1)Cc1ccccc1 [Compound 16-8] | did not change |  |  |  |  |  | 
2 | CN(CCc1ccc(Nc2nc(-c3cccnc3)cs2)cc1)Cc1ccccc1 [GSK205] |  | eliminated; also recorded: completely blocked | ~24 | significantly reduced sensitivity | sustained attenuation; also recorded: significant attenuation of thermal allodynia | did not show any inter-group differences; also recorded: lack of off-target effects | blocked; also recorded: virtually eliminates
